According to patent US12612384B2, “Heterocyclic CYP4A inhibitor compounds and compositions thereof” (MBD CO., LTD., priority 2021, dated 2026):

biological target: T1, CYP4A (Homo sapiens, UniProt Q02928); test: CYP4A enzyme assay (luminescence, Luciferin-ME); assay type: biochemical; settings: Compound concentration 5 μM; 50%-70%; read-out: % Inhibition 50%-70%
T1 construct: purchased; host or cells: bacterial membranes ('bactosome')
T1 sequence (Q02928 5-519): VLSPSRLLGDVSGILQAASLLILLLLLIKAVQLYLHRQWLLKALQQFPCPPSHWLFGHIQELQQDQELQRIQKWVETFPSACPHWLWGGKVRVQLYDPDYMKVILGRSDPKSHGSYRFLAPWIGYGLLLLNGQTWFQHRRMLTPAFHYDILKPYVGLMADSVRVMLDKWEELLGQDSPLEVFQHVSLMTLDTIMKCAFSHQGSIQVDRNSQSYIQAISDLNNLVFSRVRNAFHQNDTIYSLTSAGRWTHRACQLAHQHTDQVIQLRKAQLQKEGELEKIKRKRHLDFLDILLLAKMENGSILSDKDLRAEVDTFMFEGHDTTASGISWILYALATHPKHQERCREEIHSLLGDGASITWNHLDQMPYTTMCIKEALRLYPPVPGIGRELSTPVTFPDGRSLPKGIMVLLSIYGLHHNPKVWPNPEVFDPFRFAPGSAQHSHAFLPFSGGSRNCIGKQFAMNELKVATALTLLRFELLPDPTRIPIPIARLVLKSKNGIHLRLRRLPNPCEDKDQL
Procedure, shortened: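 Compounds (5 μM) were preincubated 15 min at room temperature with CYP4A bactosomes in 100 mM KPO4, 0.1% BSA, 1 mM DTT. Reaction ran 30 min at room temperature after adding 5 mM Luciferin-ME and NADPH regeneration system. Luminescence after 15 min with detection reagent; inhibition judged by comparing well signals.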

inhibition at 5 µM [%] | Compound
50 to 70 | COC(=O)CCS(=O)(=O)N1CCCC(C(=O)N2CCN(c3ccnc4ccccc34)CC2)C1 (stereo not drawn) [Example 132, methyl 3-((3-(4-(quinolin-4-yl)piperazine-1-carbonyl)piperidin-1-yl)sulfonyl)propanoate]
50 to 70 | CC(=O)Nc1ccc(S(=O)(=O)N2CCCC(C(=O)N3CCN(c4nc(C)nc5ccccc45)CC3)C2)cc1 (stereo not drawn) [Example 79, N-(4-(3-(1-(2-methylquinazolin-4-yl)piperazine-4-carbonyl)piperidin-1-ylsulfonyl)phenyl)acetamide]
50 to 70 | Cc1cc(N2CCN(C(=O)C3CCCN(C(=O)c4ccc(F)cc4)C3)CC2)c2ccccc2n1 (stereo not drawn) [Example 101, (1-(4-fluorobenzoyl)piperidin-3-yl)(4-(2-methylquinolin-4-yl)piperazin-1-yl)methanone]
50 to 70 | COc1ccc(C(=O)N2CCCC(C(=O)N3CCN(c4ccnc5cc(OC)ccc45)CC3)C2)cc1 (stereo not drawn) [Example 94, (4-(7-methoxyquinolin-4-yl)piperazin-1-yl)(1-(4-methoxyphenylcarbonyl)piperidin-3-yl)methanone]

same assay, conditions: Compound concentration 5 μM; 70%-90%; read-out: % Inhibition 70%-90%

inhibition at 5 µM [%] | Compound
70 to 90 | O=C([C@H]1CCN(S(=O)(=O)c2ncnn2CCO)C1)N1CCN(c2ccnc3cc(F)ccc23)CC1 [Example 145, (S)-(4-(7-fluoroquinolin-4-yl)piperazin-1-yl)(1-((1-(2-hydroxyethyl)-1H-1,2,4-triazol-5-yl)sulfonyl)pyrrolidin-3-yl)methanone]
70 to 90 | O=C(C1CCCN(S(=O)(=O)c2ccncc2)C1)N1CCN(c2ccnc3cc(Cl)ccc23)CC1 (stereo not drawn) [Example 124, (4-(7-chloroquinolin-4-yl)piperazin-1-yl)(1-(pyridin-4-ylsulfonyl)piperidin-3-yl)methanone]
70 to 90 | O=C(C1CCN(Cc2ccc([N+](=O)[O-])cc2)C1)N1CCN(c2ccnc3cc(F)ccc23)CC1 (stereo not drawn) [Example 53, (4-(7-fluoroquinolin-4-yl)piperazin-1-yl)(1-(4-nitrobenzyl)pyrrolidin-3-yl)methanone]
70 to 90 | O=C(c1ccncc1)N1CCCC(C(=O)N2CCN(c3ccnc4cc(Cl)ccc34)CC2)C1 (stereo not drawn) [Example 87, (4-(7-chloroquinolin-4-yl)piperazin-1-yl)(1-(pyridine-4-ylcarbonyl)piperidin-3-yl)methanone]
70 to 90 | COc1ccc(S(=O)(=O)N2CCC(C(=O)N3CCN(c4ccnc5ccccc45)CC3)C2)cn1 (stereo not drawn) [Example 51, (1-((6-methoxypyridin-3-yl)sulfonyl)pyrrolidin-3-yl)(4-(quinolin-4-yl)piperazin-1-yl)methanone]
70 to 90 | O=C(C1CCN(S(=O)(=O)c2ccc(Br)cc2)CC1)N1CCN(c2ccnc3ccccc23)CC1 [Example 63, (1-((4-bromophenyl)sulfonyl)piperidin-4-yl)(4-(quinolin-4-yl)piperazin-1-yl)methanone]
70 to 90 | O=C(C1CCN(S(=O)(=O)c2ccc(Br)cc2)CC1)N1CCN(c2ccnc3cc(F)ccc23)CC1 [Example 56, (1-((4-bromophenyl)sulfonyl)piperidin-4-yl)(4-(7-fluoroquinolin-4-yl)piperazin-1-yl)methanone]
70 to 90 | O=C(C1CCCN(S(=O)(=O)C2CCCCC2)C1)N1CCN(c2ccnc3ccccc23)CC1 (stereo not drawn) [Example 121, (1-(cyclohexylsulfonyl)piperidin-3-yl)(4-(quinolin-4-yl)piperazin-1-yl)methanone]
70 to 90 | O=C(C1CCN(S(=O)(=O)c2ccc(Br)cc2)C1)N1CCN(c2ccnc3cc(F)ccc23)CC1 (stereo not drawn) [Example 16, (1-((4-bromophenyl)sulfonyl)pyrrolidin-3-yl)(4-(7-fluoroquinolin-4-yl)piperazin-1-yl)methanone]
70 to 90 | COc1ccc2c(N3CCN(C(=O)C4CCCN(C(=O)c5ccc(NC(C)=O)cc5)C4)CC3)ccnc2c1 (stereo not drawn) [Example 89, N-(4-(3-(4-(7-methoxyquinolin-4-yl)piperazine-1-carbonyl)piperidine-1-carbonyl)phenyl)acetamide]

same assay, conditions: Compound concentration 5 μM; Greater than 90%; read-out: % Inhibition Greater than 90%

inhibition at 5 µM [%] | Compound
> 90 | O=C([C@H]1CCN(S(=O)(=O)c2ncc[nH]2)C1)N1CCN(c2ccnc3ccc(F)cc23)CC1 [Example 159, (S)-(1-((1H-imidazol-2-yl)sulfonyl)pyrrolidin-3-yl)(4-(6-fluoroquinolin-4-yl)piperazin-1-yl)methanone]
> 90 | Cc1nc(S(=O)(=O)N2CC[C@H](C(=O)N3CCN(c4ccnc5cc(F)ccc45)CC3)C2)n[nH]1 [Example 166, (S)-(4-(7-fluoroquinolin-4-yl)piperazin-1-yl)(1-((5-methyl-1H-1,2,4-triazol-3-yl)sulfonyl)pyrrolidin-3-yl)methanone]
> 90 | CN1CCN(c2ccc(S(=O)(=O)N3CCCC(C(=O)N4CCN(c5ccnc6cc(F)ccc56)CC4)C3)cn2)CC1 (stereo not drawn) [Example 62, (4-(7-fluoroquinolin-4-yl)piperazin-1-yl)(1-((6-(4-methylpiperazin-1-yl)pyridin-3-yl)sulfonyl)piperidin-3-yl)methanone]
> 90 | O=C(c1nn[nH]n1)N1CC[C@H](C(=O)N2CCN(c3ccnc4cc(F)ccc34)CC2)C1 [Example 162, (S)-(1-(2H-tetrazole-5-carbonyl)pyrrolidin-3-yl)(4-(7-fluoroquinolin-4-yl)piperazin-1-yl)methanone]
> 90 | CC(=O)Nc1ccc(S(=O)(=O)N2CCCC(C(=O)N3CCN(c4ccnc5cc(F)ccc45)CC3)C2)cn1 (stereo not drawn) [Example 60, N-(5-((3-(4-(7-fluoroquinolin-4-yl)piperazine-1-carbonyl)piperidin-1-yl)sulfonyl)pyridin-2-yl)acetamide]
> 90 | CC(=O)Nc1ccc(S(=O)(=O)N2CC(C(=O)N3CCN(c4ccnc5cc(F)ccc45)CC3)C2)cc1 [Example 65, N-(4-((3-(4-(7-fluoroquinolin-4-yl)piperazine-1-carbonyl)azetidin-1-yl)sulfonyl)phenyl)acetamide]
> 90 | Cn1ccnc1S(=O)(=O)N1CCC(C(=O)N2CCN(c3ccnc4cc(F)ccc34)CC2)C1 (stereo not drawn) [Example 5, (4-(7-fluoroquinolin-4-yl)piperazin-1-yl)(1-((1-methyl-1H-imidazol-2-yl)sulfonyl)pyrrolidin-3-yl)methanone]
> 90 | CC(=O)Nc1nc(C)c(S(=O)(=O)N2CC[C@H](C(=O)N3CCN(c4ccnc5ccccc45)CC3)C2)s1 [Example 49, (S)—N-(4-methyl-5-((3-(4-(quinolin-4-yl)piperazine-1-carbonyl)pyrrolidin-1-yl)sulfonyl)thiazol-2-yl)acetamide]
> 90 | O=C(C1CCN(S(=O)(=O)c2ccc([N+](=O)[O-])cc2)C1)N1CCN(c2ccnc3cc(F)ccc23)CC1 (stereo not drawn) [Example 8, (4-(7-fluoroquinolin-4-yl)piperazin-1-yl)(1-((4-nitrophenyl)sulfonyl)pyrrolidin-3-yl)methanone]
> 90 | Cc1ncc(-c2ccc(S(=O)(=O)N3CCC(C(=O)N4CCN(c5ccnc6ccccc56)CC4)C3)cc2)cn1 (stereo not drawn) [Example 33, (1-((4-(2-methylpyrimidin-5-yl)phenyl)sulfonyl)pyrrolidin-3-yl)(4-(quinolin-4-yl)piperazin-1-yl)methanone]
> 90 | Cc1nc(C)c(S(=O)(=O)N2CCC(C(=O)N3CCN(c4ccnc5ccccc45)CC3)C2)s1 (stereo not drawn) [Example 40, (1-((2,4-dimethylthiazol-5-yl)sulfonyl)pyrrolidin-3-yl)(4-(quinolin-4-yl)piperazin-1-yl)methanone]
> 90 | CC(=O)Nc1ccc(S(=O)(=O)N2CCC(C(=O)N3CCN(c4ccnc5cc(F)ccc45)CC3)C2)cc1 (stereo not drawn) [Example 1, N-(4-((3-(4-(7-fluoroquinolin-4-yl)piperazine-1-carbonyl)pyrrolidin-1-yl)sulfonyl)phenyl)acetamide]
> 90 | O=C([C@H]1CCN(S(=O)(=O)c2nccn2CCO)C1)N1CCN(c2ccnc3ccc(F)cc23)CC1 [Example 160, (S)-(4-(6-fluoroquinolin-4-yl)piperazin-1-yl)(1-((1-(2-hydroxyethyl)-1H-imidazol-2-yl)sulfonyl)pyrrolidin-3-yl)methanone]

same assay, conditions: Compound concentration 5 μM; Less than 50%; read-out: % Inhibition Less than 50%

inhibition at 5 µM [%] | Compound
< 50 | O=C(C1CCCN(C(=O)C2CCCCC2)C1)N1CCN(c2ccnc3ccccc23)CC1 (stereo not drawn) [Example 114, (1-(cyclohexylcarbonyl)piperidin-3-yl)(4-(quinolin-4-yl)piperazin-1-yl)methanone]
< 50 | Cc1cc(N2CCN(C(=O)C3CCCN(C(=O)C4CCCCC4)C3)CC2)c2ccccc2n1 (stereo not drawn) [Example 103, (1-(cyclohexylcarbonyl)piperidin-3-yl)(4-(2-methylquinolin-4-yl)piperazin-1-yl)methanone]
< 50 | O=C(C1CCCN(C(=O)C2CCCCC2)C1)N1CCN(c2cc(C(F)(F)F)nc3ccccc23)CC1 (stereo not drawn) [Example 97, (1-(cyclohexylcarbonyl)piperidin-3-yl)(4-(2-(trifluoromethyl)quinolin-4-yl)piperazin-1-yl)methanone]
